Experiments:
[1] = target: human activated kallikrein enzyme (Homo sapiens, UniProt P03952); test: Inhibition of human activated plasma kallikrein, fluorogenic PFR-AMC substrate, 500 pM enzyme format; assay type: biochemical; details: 500 pM activated kallikrein; 300 μM PFR-AMC; 30 min preincubation; 10 min room temperature; pH 7.5; read-out: Primary Dose Response Assay: Average EC50
Summary of the method: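 500 pM activated kallikrein preincubated 30 min at room temperature with inhibitors in pH 7.5 Tris/EDTA/NaCl buffer with PEG-400 and Triton X-100. Reaction started with 300 μM PFR-AMC, run 10 min at room temperature; AMC fluorescence read at ex 380/em 460 nm.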

plasma kallikrein = target: T1, plasma kallikrein (Homo sapiens, UniProt P03952); test: Neat Human Plasma Assay (Fluorogenic Peptide), contact pathway-activated (FXIIa) plasma; assay type: biochemical; details: human citrated plasma 78% final; 10 nM human FXIIa; PFR-AMC substrate; 5 minutes; room temperature
T1 construct: PFR-AMC substrate
Procedure: To analyze inhibition of plasma kallikrein in an ex vivo setting, the potency of compounds was measure in contact pathway-activated plasma assays. In a fluorogenic peptide substrate assay, test compounds dissolved in DMSO were added to sodium citrate collected human or rat plasma in a 96-well microplate. Alternatively, citrated plasma was collected from rats administered the compounds orally or by IV. 10 nM of human FXIIa (Enzyme Research Laboratories) diluted in PKa buffer (20 mM Tris-HCl, pH 7.5, 150 mM NaCl, 1 mM EDTA, 0.1% PEG-8000, and 0.1% Triton X-100) was added to the plasma, followed by the […] of the profluorescent, synthetic plasma kallikrein substrate PFR-AMC (also diluted in PKa buffer). Final plasma concentration in the reaction was 78%. Fluorescence was immediately monitored by excitation/emission wavelengths of 360 nm/480 nm respectively over a period of 5 minutes in a microplate reader. The resulting linear increase in fluorescence emission (reflecting PKa proteolysis of PFR-AMC substrate) was fit to extract a proteolytic rate (fluorescent units over time), and this rate was subsequently plotted against compound inhibitor concentration. Resulting plots were fit to a standard 4-parameter IC50/IC90 equation to determine min/max values, IC50/90, and slope. All experimental steps were performed at room temperature.

T1 sequence (P03952 20-638): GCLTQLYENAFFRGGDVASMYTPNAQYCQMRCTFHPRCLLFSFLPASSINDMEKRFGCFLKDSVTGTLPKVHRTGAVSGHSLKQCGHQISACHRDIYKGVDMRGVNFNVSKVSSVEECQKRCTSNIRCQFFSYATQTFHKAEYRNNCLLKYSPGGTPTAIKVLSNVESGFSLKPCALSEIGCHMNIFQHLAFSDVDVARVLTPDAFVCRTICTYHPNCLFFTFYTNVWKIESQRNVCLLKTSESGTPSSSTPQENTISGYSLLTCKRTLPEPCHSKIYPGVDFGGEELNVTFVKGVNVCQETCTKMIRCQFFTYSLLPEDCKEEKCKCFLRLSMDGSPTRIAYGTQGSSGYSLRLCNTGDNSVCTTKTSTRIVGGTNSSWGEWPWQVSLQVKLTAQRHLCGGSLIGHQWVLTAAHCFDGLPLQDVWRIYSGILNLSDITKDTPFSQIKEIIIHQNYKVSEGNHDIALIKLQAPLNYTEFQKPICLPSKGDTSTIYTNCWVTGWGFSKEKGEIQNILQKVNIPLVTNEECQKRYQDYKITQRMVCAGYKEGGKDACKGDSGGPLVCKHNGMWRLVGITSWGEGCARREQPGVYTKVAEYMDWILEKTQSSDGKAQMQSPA
Sequence of human activated kallikrein enzyme (P03952 391-638 limits assumed): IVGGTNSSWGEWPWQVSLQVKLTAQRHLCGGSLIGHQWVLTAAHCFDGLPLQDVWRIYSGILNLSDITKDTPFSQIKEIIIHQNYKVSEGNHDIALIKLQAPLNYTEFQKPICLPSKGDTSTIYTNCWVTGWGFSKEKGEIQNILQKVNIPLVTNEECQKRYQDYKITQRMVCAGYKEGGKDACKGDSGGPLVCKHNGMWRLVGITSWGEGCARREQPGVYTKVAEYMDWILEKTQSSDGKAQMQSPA
Sequence of human activated kallikrein enzyme (P03952 20-390 partner limits assumed): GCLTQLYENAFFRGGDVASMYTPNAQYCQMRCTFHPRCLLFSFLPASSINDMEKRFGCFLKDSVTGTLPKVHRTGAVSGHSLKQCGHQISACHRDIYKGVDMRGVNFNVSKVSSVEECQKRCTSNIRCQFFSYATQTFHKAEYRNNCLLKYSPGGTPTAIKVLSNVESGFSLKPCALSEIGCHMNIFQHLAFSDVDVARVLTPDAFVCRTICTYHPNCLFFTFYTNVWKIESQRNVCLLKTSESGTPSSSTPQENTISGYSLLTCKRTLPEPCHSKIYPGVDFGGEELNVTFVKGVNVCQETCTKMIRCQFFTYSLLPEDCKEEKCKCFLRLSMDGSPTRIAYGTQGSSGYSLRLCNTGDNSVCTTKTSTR

Row | Compound | EC50 [1] | IC90 (plasma kallikrein)
1 | N-((1-amino-5,7-dimethylisoquinolin-6-yl)methyl)-1-(4-((2-oxopyridin-1(2H)-y1)methyl)benzyl)-1H-1,2,3-triazole-4-carboxamide [Example 186] | < 1 nM | ≤ 1000 nM
2 | Cc1cc2c(N)nccc2c(C)c1CNc1cc(OCc2cc(C#N)c3ncc(Cl)cc3c2)ncn1 [Example 398, 6-(((6-(((1-amino-5,7-dimethylisoquinolin-6-yl)methyl)amino)pyrimidin-4-yl)oxy)methyl)-3-chloroquinoline-8-carbonitrile] | 1 to 10 nM | > 5000 nM
3 | Cc1cc2c(N)nccc2c(C)c1CNC(=O)c1cnn(Cc2ccc(Cn3ccccc3=O)cc2)c1 [Example 192, N-((1-amino-5,7-dimethylisoquinolin-6-yl)methyl)-1-(4-((2-oxopyridin-1(2H)-y1)methyl)benzyl)-1H-pyrazole-4-carboxamide] | < 1 nM | ≤ 1000 nM
4 | Cc1cc2c(N)nccc2c(C)c1CNc1cc2c(cn1)cnn2Cc1cn2cc(C3CC3)ccc2n1 [Example 268, 6-(((1-((6-cyclopropylimidazo[1,2-a]pyridin-2-yl)methyl)-1H-pyrazolo[4,3-c]pyridin-6-yl)amino)methyl)-5,7-dimethylisoquinolin-1-amine] | < 1 nM | ≤ 1000 nM
5 | Cc1cc2c(N)nccc2c(C)c1CNc1cc(OCc2cn3cc(C4CC4)cc(N4CCCC4=O)c3n2)ncn1 [Example 259, 1-(2-(((6-(((1-amino-5,7-dimethylisoquinolin-6-yl)methyl)amino)pyrimidin-4-yl)oxy)methyl)-6-cyclopropylimidazo[1,2-a]pyridin-8-yl)pyrrolidin-2-one] | < 1 nM | ≤ 1000 nM
6 | Cc1cc2c(N)nccc2c(C)c1CNc1cc2c(ccn2Cc2ccc(Cn3cccn3)cc2)nn1 [Example I-457, 6-(((5-(4-((1H-pyrazol-1-yl)methyl)benzyl)-5H-pyrrolo[3,2-c]pyridazin-3-yl)amino)methyl)-5,7-dimethylisoquinolin-1-amine] | < 1 nM | ≤ 1000 nM
7 | Cc1ccc2cc(Cn3ccc4nnc(NCc5c(C)cc6c(N)nccc6c5C)cc43)ccc2n1 [Example 515, 5,7-dimethyl-6-(((5-((2-methylquinolin-6-yl)methyl)-5H-pyrrolo[3,2-c]pyridazin-3-yl)amino)methyl)isoquinolin-1-amine] | < 1 nM | 1000 to 5000 nM
8 | Cc1cc2c(N)nccc2c(C)c1CNc1cc(OCc2ccc(Cn3cccn3)cc2)ncn1 [Example 251, 6-(((6-((4-((1H-pyrazol-1-yl)methyl)benzyl)oxy)pyrimidin-4-yl)amino)methyl)-5,7-dimethylisoquinolin-1-amine] | < 1 nM | > 5000 nM
9 | Cc1cc2c(N)nccc2c(C)c1CNc1cc(OCc2cc3cc(C4CC4)cc(CC(C)(C)C#N)n3n2)ncn1 [Example 510, 3-(2-(((6-(((1-amino-5,7-dimethylisoquinolin-6-yl)methyl)amino)pyrimidin-4-yl)oxy)methyl)-5-cyclopropylpyrazolo[1,5-a]pyridin-7-yl)-2,2-dimethylpropanenitrile] | 1 to 10 nM | 1000 to 5000 nM
10 | Cc1cc2c(N)nccc2c(C)c1CNc1cc(NCc2cn3nc(C4CC4)ccc3n2)ncn1 [Example 242, N4-((1-amino-5,7-dimethylisoquinolin-6-yl)methyl)-N6-((6-cyclopropylimidazo[1,2-b]pyridazin-2-yl)methyl)pyrimidine-4,6-diamine] | < 1 nM | 1000 to 5000 nM
11 | Cc1cc2c(N)nccc2c(C)c1CNc1nccc2nc(Cc3cn4cc(C5CC5)ccc4n3)[nH]c12 [Example 500, 6-(((2-((6-cyclopropylimidazo[1,2-a]pyridin-2-yl)methyl)-3H-imidazo[4,5-c]pyridin-4-yl)amino)methyl)-5,7-dimethylisoquinolin-1-amine] | < 1 nM | > 5000 nM
12 | Cc1cc2c(N)nccc2c(C)c1CNc1cc(OCc2cc3cc(C4CC4)cc(CCC(=O)O)n3n2)ncn1 [Example 273, 3-(2-(((6-(((1-amino-5,7-dimethylisoquinolin-6-yl)methyl)amino)pyrimidin-4-yl)oxy)methyl)-5-cyclopropylpyrazolo[1,5-a]pyridin-7-yl)propanoic acid] | < 1 nM | > 5000 nM
13 | Cc1cc2c(N)nccc2c(C)c1CNc1cc2c(cn1)ncn2Cc1cn2cc(C3CC3)ccc2n1 [Example 499, 6-(((1-((6-cyclopropylimidazo[1,2-a]pyridin-2-yl)methyl)-1H-imidazo[4,5-c]pyridin-6-yl)amino)methyl)-5,7-dimethylisoquinolin-1-amine] | < 1 nM | ≤ 1000 nM
14 | Cc1cc2c(N)nccc2c(C)c1CNc1cc(OCc2cn3cc(C4CC4)cc(C4(O)COC4)c3n2)ncn1 [Example 250, 3-(2-(((6-(((1-amino-5,7-dimethylisoquinolin-6-yl)methyl)amino)pyrimidin-4-yl)oxy)methyl)-6-cyclopropylimidazo[1,2-a]pyridin-8-yl)oxetan-3-ol] | < 1 nM | ≤ 1000 nM
15 | Cc1cc2c(N)nccc2c(C)c1CNC(=O)c1cnn(Cc2nc3ccc(C4CC4)cn3n2)c1 [Example I-482, N-((1-amino-5,7-dimethylisoquinolin-6-yl)methyl)-1-((6-cyclopropyl-[1,2,4]triazolo[1,5-a]pyridin-2-yl)methyl)-1H-pyrazole-4-carboxamide] | < 1 nM | ≤ 1000 nM
16 | Cc1cc2c(N)nccc2c(C)c1CNc1cc(OCc2cn3nc(C4CC4)ccc3n2)ncn1 [Example 261, 6-(((6-((6-cyclopropylimidazo[1,2-b]pyridazin-2-yl)methoxy)pyrimidin-4-yl)amino)methyl)-5,7-dimethylisoquinolin-1-amine] | < 1 nM | 1000 to 5000 nM
17 | Cc1cc2c(N)nccc2c(C)c1CNc1cc2c(cn1)ncn2Cc1cc2cc(C3CC3)cnc2s1 [Example 504, 6-(((1-((5-cyclopropylthieno[2,3-b]pyridin-2-yl)methyl)-1H-imidazo[4,5-c]pyridin-6-yl)amino)methyl)-5,7-dimethylisoquinolin-1-amine] | < 1 nM | ≤ 1000 nM
18 | Cc1ccc2cc(COc3cc(NCc4c(C)cc5c(N)nccc5c4C)ncn3)ccc2n1 [Example 371, 5,7-dimethyl-6-(((6-((2-methylquinolin-6-yl)methoxy)pyrimidin-4-yl)amino)methyl)isoquinolin-1-amine] | 1 to 10 nM | 1000 to 5000 nM
19 | Cc1cc2c(N)nccc2c(C)c1CNc1cc2c(cn1)ncn2Cc1nc2ccc(C3CC3)cn2n1 [Example 503, 6-(((1-((6-cyclopropyl-[1,2,4]triazolo[1,5-a]pyridin-2-yl)methyl)-1H-imidazo[4,5-c]pyridin-6-yl)amino)methyl)-5,7-dimethylisoquinolin-1-amine] | < 1 nM | ≤ 1000 nM
20 | Cc1cc2c(N)nccc2c(C)c1CNc1cc(OCc2cc3cc(C4CC4)ccn3n2)ncn1 [Example 400, 6-(((6-((5-cyclopropylpyrazolo[1,5-a]pyridin-2-yl)methoxy)pyrimidin-4-yl)amino)methyl)-5,7-dimethylisoquinolin-1-amine] | 1 to 10 nM | > 5000 nM
21 | Cc1cc2c(N)nccc2c(C)c1CNc1nccnc1NCc1cn2cc(C3CC3)ccc2n1 [Example 240] | 1 to 10 nM | 1000 to 5000 nM
22 | Cc1cc2c(N)nccc2c(C)c1CNc1cc(N2C[C@@H](O)C[C@@H]2c2cn3cc(C4CC4)ccc3n2)ncn1 [Example 513, (3S,5R)-1-(6-(((1-amino-5,7-dimethylisoquinolin-6-yl)methyl)amino)pyrimidin-4-yl)-5-(6-cyclopropylimidazo[1,2-a]pyridin-2-yl)pyrrolidin-3-ol] | < 1 nM | ≤ 1000 nM
23 | Cc1cc2c(N)nccc2c(C)c1CNc1cc(OCc2cn3cc(C4CC4)ccc3n2)ccn1 [Example 284, 6-(((4-((6-cyclopropylimidazo[1,2-a]pyridin-2-yl)methoxy)pyridin-2-yl)amino)methyl)-5,7-dimethylisoquinolin-1-amine] | < 1 nM | > 5000 nM
24 | Cc1cc2c(N)nccc2c(C)c1CNc1cc(OC(C)c2ccc(Cn3cccn3)cc2)cnn1 (single isomer, unassigned) [Example 276, (R*)-6-(((5-(1-(4-((1H-pyrazol-1-yl)methyl)phenyl)ethoxy)pyridazin-3-yl)amino)methyl)-5,7-dimethylisoquinolin-1-amine] | < 1 nM | ≤ 1000 nM
25 | Cc1cc2c(N)nccc2c(C)c1CNc1cc(OCc2nc3ccc(C4CC4)nn3n2)ncn1 [Example 391, 6-(((6-((6-cyclopropyl-[1,2,4]triazolo[1,5-b]pyridazin-2-yl)methoxy)pyrimidin-4-yl)amino)methyl)-5,7-dimethylisoquinolin-1-amine] | 10 to 100 nM | > 5000 nM
